Source: ChEMBL document CHEMBL5096233, “Phenotypic Discovery of Triazolo[1,5-c]quinazolines as a First-In-Class Bone Morphogenetic Protein Amplifier Chemotype” (J Med Chem, 2022)
Active and inactive are the calls of the source. The calls are words filed in the database; no cut-off is given here.

Assays:
[1] = target: Casein kinase I isoform delta (Homo sapiens, UniProt P48730); assay: Inhibition of CK1delta (unknown origin)
[2] = target: Casein kinase I isoform alpha (Homo sapiens, UniProt P48729); assay: Inhibition of CK1alpha (unknown origin)
Sequence of Casein kinase I isoform alpha (P48729 whole entry, canonical isoform): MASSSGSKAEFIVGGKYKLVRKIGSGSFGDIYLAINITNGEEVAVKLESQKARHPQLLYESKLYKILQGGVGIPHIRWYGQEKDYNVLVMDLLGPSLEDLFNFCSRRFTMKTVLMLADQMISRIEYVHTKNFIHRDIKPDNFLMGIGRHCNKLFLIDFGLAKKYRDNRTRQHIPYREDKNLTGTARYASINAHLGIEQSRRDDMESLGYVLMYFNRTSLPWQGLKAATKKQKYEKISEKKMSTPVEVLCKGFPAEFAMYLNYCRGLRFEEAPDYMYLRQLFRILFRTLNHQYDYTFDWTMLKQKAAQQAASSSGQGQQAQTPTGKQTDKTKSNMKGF

[3] = target: T1, Phosphatidylinositol 4,5-bisphosphate 3-kinase catalytic subunit beta isoform (Homo sapiens, UniProt P42338); assay: Inhibition of PI3Kbeta (unknown origin) at 10 uM relative to control
Target sequence in this assay (P42338 whole entry, looked up, canonical isoform): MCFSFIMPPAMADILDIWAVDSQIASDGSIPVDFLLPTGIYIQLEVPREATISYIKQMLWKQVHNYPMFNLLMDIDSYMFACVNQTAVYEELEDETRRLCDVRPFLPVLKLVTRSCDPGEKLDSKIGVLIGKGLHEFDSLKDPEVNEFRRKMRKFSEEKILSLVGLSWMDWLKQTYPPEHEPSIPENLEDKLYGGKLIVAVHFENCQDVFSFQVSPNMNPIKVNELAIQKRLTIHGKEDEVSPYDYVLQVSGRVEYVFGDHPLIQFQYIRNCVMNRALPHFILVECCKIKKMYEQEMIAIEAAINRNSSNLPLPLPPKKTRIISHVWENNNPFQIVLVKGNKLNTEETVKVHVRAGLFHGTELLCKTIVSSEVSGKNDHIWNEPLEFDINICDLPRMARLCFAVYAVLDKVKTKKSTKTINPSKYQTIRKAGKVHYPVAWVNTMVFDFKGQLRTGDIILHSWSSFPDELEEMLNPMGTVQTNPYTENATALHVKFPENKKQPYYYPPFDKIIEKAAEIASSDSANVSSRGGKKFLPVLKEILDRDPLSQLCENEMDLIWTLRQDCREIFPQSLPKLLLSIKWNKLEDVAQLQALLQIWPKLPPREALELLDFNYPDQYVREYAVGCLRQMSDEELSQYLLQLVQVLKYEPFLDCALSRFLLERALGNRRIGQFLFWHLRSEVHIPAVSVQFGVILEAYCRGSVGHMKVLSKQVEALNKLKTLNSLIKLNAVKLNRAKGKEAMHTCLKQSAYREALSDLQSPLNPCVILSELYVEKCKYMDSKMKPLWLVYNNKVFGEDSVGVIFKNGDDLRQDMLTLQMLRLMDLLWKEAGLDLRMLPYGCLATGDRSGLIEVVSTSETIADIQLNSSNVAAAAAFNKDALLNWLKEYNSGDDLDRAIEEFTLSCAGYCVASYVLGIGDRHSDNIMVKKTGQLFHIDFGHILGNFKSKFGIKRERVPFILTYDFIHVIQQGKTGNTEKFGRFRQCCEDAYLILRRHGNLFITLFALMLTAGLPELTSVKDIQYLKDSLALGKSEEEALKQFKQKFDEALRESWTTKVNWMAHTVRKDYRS

[4] = target: T2, Phosphatidylinositol 4,5-bisphosphate 3-kinase catalytic subunit delta isoform (Homo sapiens) (UniProt O00329); assay: Inhibition of PI3Kdelta (unknown origin) at 10 uM relative to control
T2 sequence (whole entry): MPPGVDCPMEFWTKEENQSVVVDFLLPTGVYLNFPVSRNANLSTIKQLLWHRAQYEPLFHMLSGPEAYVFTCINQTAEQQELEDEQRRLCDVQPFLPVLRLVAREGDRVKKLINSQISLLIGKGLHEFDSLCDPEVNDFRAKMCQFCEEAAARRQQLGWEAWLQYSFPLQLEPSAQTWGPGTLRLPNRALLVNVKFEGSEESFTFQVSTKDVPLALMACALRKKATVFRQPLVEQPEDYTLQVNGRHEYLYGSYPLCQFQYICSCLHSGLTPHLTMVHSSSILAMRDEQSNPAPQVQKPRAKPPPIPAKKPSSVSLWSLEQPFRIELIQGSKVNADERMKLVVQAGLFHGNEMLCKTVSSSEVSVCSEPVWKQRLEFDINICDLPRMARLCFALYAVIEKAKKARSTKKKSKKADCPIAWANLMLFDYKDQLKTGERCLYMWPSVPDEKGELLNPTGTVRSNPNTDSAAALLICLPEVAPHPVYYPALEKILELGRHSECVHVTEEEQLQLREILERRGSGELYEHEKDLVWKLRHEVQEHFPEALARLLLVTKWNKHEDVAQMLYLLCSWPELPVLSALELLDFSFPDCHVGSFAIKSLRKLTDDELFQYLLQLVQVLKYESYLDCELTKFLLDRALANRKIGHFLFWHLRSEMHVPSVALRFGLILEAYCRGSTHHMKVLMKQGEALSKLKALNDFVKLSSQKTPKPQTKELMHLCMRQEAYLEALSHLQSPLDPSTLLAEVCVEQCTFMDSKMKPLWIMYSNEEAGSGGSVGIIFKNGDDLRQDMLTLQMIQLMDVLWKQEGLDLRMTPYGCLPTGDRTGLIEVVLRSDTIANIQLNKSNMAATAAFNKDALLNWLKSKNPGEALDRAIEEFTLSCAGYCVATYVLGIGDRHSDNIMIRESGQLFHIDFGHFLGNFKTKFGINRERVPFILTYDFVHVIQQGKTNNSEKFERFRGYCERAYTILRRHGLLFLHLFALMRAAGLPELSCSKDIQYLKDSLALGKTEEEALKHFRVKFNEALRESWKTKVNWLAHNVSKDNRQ

HEK293T = assay: Activation of BMP signaling in HEK293T cells expressing BRE-Vent2 luciferase reporter gene assessed as BRE activation by measuring increase in luciferase activity measured after 22 hrs in the presence of BMP-4 by dual-luciferase assay; assay type: cell-based; conditions: Homo sapiens, filed as activator
[5] = target: T3, Phosphatidylinositol 4,5-bisphosphate 3-kinase catalytic subunit alpha isoform (Homo sapiens, UniProt P42336); assay: Inhibition of PI3Kalpha (unknown origin) at 10 uM relative to control
C2C12 [6] = assay: Induction of osteogenic differentiation in mouse C2C12 cells assessed as ALP activity at 5 uM preincubated with compound in the presence of BMP-4 for 72 hrs followed by substrate addition and measured after 1 hrs by luminescence based assay relative to control; assay type: functional; conditions: time 73 hrs
[7] = target: Casein kinase I isoform epsilon (Homo sapiens, UniProt P49674); assay: Inhibition of CK1epsilon (unknown origin)
Sequence of Casein kinase I isoform epsilon (P49674 whole entry, canonical isoform): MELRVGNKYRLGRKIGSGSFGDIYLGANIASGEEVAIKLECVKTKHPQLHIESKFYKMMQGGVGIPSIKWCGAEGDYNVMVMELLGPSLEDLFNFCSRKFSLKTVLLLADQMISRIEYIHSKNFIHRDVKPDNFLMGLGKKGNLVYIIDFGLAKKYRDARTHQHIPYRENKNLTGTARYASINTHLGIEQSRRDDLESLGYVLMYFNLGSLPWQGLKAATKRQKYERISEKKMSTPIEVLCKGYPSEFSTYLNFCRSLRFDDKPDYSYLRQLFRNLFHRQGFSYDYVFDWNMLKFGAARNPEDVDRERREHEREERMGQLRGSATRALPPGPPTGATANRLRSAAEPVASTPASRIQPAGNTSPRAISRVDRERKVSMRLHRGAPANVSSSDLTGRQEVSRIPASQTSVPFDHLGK

[8] = target: T4, Phosphatidylinositol 4,5-bisphosphate 3-kinase catalytic subunit gamma isoform (Homo sapiens, UniProt P48736); assay: Inhibition of PI3Kgamma (unknown origin) at 10 uM relative to control
Target sequence in this assay (P48736 whole entry, looked up, canonical isoform): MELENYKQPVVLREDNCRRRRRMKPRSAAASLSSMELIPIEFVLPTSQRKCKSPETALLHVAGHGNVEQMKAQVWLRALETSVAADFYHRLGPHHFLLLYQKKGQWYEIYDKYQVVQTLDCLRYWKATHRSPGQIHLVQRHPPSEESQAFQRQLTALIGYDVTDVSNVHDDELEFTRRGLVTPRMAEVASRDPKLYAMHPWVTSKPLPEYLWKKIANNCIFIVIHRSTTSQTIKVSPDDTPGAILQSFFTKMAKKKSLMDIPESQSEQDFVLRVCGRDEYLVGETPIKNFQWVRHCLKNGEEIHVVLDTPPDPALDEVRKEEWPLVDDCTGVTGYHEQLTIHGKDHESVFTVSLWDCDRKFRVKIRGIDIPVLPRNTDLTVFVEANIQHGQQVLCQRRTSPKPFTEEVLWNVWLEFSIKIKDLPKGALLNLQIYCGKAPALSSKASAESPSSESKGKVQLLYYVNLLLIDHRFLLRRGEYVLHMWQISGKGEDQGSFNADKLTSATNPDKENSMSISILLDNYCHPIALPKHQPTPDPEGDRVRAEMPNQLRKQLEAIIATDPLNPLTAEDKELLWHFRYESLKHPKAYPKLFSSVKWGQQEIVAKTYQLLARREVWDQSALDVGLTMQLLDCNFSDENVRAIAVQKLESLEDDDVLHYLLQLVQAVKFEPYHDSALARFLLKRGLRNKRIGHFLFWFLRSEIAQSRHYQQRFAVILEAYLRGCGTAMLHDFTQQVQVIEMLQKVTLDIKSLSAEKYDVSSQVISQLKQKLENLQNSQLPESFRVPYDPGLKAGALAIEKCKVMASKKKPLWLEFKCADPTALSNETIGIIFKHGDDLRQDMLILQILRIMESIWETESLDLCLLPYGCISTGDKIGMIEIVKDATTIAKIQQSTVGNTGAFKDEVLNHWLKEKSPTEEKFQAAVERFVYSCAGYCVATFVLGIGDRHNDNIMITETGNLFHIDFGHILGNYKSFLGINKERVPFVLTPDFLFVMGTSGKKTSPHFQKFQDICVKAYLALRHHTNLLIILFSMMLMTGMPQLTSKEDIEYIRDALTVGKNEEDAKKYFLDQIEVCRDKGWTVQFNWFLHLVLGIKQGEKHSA

[9] = target: Phosphatidylinositol 3-kinase catalytic subunit type 3 (Homo sapiens) (UniProt Q8NEB9); assay: Inhibition of VPS34 (unknown origin) at 10 uM relative to control
Sequence of Phosphatidylinositol 3-kinase catalytic subunit type 3 (Homo sapiens) (Q8NEB9 whole entry): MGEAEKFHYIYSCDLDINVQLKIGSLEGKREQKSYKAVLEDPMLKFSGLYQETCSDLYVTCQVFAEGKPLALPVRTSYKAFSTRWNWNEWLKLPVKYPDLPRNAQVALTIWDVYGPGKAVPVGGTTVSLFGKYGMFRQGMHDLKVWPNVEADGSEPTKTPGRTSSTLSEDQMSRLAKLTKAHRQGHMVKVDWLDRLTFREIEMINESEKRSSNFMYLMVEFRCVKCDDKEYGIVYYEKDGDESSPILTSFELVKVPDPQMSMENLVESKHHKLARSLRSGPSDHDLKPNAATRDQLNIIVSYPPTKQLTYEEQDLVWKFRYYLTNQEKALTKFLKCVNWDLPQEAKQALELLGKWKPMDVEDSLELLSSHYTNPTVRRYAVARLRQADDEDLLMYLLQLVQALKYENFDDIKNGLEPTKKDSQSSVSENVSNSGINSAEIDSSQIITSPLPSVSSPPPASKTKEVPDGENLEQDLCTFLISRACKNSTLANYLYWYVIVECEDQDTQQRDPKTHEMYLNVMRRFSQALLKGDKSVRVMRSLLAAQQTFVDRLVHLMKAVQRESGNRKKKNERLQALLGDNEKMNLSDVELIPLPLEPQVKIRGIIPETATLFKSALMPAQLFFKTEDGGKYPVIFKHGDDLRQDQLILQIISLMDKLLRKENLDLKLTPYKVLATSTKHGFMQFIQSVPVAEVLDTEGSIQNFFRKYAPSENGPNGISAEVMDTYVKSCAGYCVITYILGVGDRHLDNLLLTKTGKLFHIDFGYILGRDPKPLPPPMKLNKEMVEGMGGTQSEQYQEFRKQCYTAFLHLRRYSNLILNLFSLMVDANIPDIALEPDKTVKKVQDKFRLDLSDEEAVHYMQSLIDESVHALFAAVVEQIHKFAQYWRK

C2C12 [10] = assay: Induction of osteogenic differentiation in mouse C2C12 cells assessed as ALP activity preincubated with compound in the presence of BMP-4 for 72 hrs followed by substrate addition and measured after 1 hrs by luminescence based assay; assay type: functional, cell-based; conditions: time 73.0 hrs
[11] = target: DNA-dependent protein kinase catalytic subunit (Homo sapiens, UniProt P78527); assay: Inhibition of DNA-PK (unknown origin)
[12] = target: T1, Phosphatidylinositol 4,5-bisphosphate 3-kinase catalytic subunit beta isoform; assay: Inhibition of PI3Kbeta (unknown origin)
Target sequence in this assay (P42338 whole entry, canonical isoform): as the sequence (P42338 whole entry, looked up, canonical isoform) above

[13] = target: T5, Phosphatidylinositol 4,5-bisphosphate 3-kinase catalytic subunit delta isoform (Homo sapiens, UniProt O00329); assay: Inhibition of PI3Kdelta (unknown origin)
T5 sequence (O00329 whole entry): T2 sequence (whole entry)

[14] = target: T3, Phosphatidylinositol 4,5-bisphosphate 3-kinase catalytic subunit alpha isoform; assay: Inhibition of PI3Kalpha (unknown origin)
[15] = target: T4, Phosphatidylinositol 4,5-bisphosphate 3-kinase catalytic subunit gamma isoform; assay: Inhibition of PI3Kgamma (unknown origin)
Target sequence in this assay (P48736 whole entry, canonical isoform): as the sequence (P48736 whole entry, looked up, canonical isoform) above

[16] = Inhibition of DMH-1 induced cardiogenesis in mouse embryonic stem cells transfected with Myh6-GFP pretreated with compound followed by DMH-1 stimulation for 24 hrs in the presence of BMP-4 with replacement of media on day 7 and 9 and measured after 11 days by DAPI-staining based assay; conditions: embryonic stem cell
C2C12 [17] = assay: Induction of osteogenic differentiation in mouse C2C12 cells assessed as ALP activity preincubated with compound in the presence of BMP-4 for 72 hrs followed by substrate addition and measured after 1 hrs in the presence of BYL719 by luminescence based assay; assay type: functional, cell-based; conditions: time 73.0 hrs, DDE = dose-dependent effect
C2C12 [18] = assay: Induction of osteogenic differentiation in mouse C2C12 cells assessed as ALP activity preincubated with compound in the presence of BMP-4 for 72 hrs followed by substrate addition and measured after 1 hrs in the presence of PIK93 by luminescence based assay; assay type: functional, cell-based; conditions: time 73.0 hrs, DDE = dose-dependent effect

Sequence of Casein kinase I isoform delta (P48730 whole entry, canonical isoform): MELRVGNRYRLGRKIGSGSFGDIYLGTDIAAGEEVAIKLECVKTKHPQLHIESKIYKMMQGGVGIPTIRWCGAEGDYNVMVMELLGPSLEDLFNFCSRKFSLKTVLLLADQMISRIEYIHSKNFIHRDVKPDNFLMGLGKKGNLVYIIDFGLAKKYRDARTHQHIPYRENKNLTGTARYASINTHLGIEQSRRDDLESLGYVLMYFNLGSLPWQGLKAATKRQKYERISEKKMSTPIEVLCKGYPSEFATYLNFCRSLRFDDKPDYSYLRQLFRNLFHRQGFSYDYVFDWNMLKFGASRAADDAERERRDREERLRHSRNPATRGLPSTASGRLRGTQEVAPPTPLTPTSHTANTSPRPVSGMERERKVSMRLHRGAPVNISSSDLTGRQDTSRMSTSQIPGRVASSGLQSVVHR

Compound: Nc1nc2ccc(O)cc2c2nc(-c3ccco3)nn12
- IC50 [1]: 3640 nM
- IC50 [2]: 6180 nM
- inhibition [3]: 0%
- inhibition [4]: 11%
- Activity (HEK293T): Active
- inhibition [5]: 72%
- Activity (C2C12 [6]): 184%
- IC50 [7]: > 10000 nM
- inhibition [8]: 79%
- inhibition [9]: 29%

Compound: Nc1nc2ccc(Cl)cc2c2nc(-c3ncco3)nn12
- IC50 [1]: 430 nM
- IC50 [2]: 2920 nM
- inhibition [3]: 29%
- inhibition [4]: 79%
- Activity (HEK293T): Active
- inhibition [5]: 82%
- Activity (C2C12 [6]): 166%
- IC50 [7]: 2070 nM
- inhibition [8]: 91%
- inhibition [9]: 10%
- Activity (C2C12 [10]): Active

Compound: CC(=O)/N=c1/[nH]c(C)c(-c2ccc(Cl)c(S(=O)(=O)NCCO)c2)s1
- Activity (C2C12 [10]): Active

Compound: Cc1nc(NC(=O)N2CCC[C@H]2C(N)=O)sc1-c1ccnc(C(C)(C)C(F)(F)F)c1
- Activity (C2C12 [10]): Active

Compound: Nc1ccc2nc(N)n3nc(-c4ccco4)nc3c2c1
- Activity (HEK293T): Active

Compound: Nc1nc2ccc(Br)cc2c2nc(-c3ccco3)nn12
- IC50 [1]: 120 nM
- IC50 [2]: 220 nM
- inhibition [3]: 27%
- inhibition [4]: 75%
- Activity (HEK293T): Active
- inhibition [5]: 80%
- Activity (C2C12 [6]): 554%
- IC50 [7]: 380 nM
- inhibition [8]: 93%
- inhibition [9]: 6%
- Activity (C2C12 [10]): Active

Compound: Nc1nc2ccc(Cl)cc2c2nc(-c3ccco3)nn12 [CGS-15943]
- IC50 [1]: 240 nM
- IC50 [2]: 820 nM
- inhibition [3]: 39%
- IC50 [11]: 140 nM
- inhibition [4]: 34%
- IC50 [12]: 8480 nM
- IC50 [13]: 970 nM
- Activity (HEK293T): Active
- inhibition [5]: 86%
- Activity (C2C12 [6]): 290%
- IC50 [7]: 490 nM
- IC50 [14]: 1280 nM
- inhibition [8]: 96%
- IC50 [15]: 110 nM
- IC50 [16]: 500 nM
- inhibition [9]: 5%
- Activity (C2C12 [10]): Active

Compound: Nc1nc2ccc(F)cc2c2nc(-c3ccco3)nn12
- Activity (HEK293T): Active
- Activity (C2C12 [10]): Active

Compound: Nc1nc2ccccc2c2nc(-c3ccco3)nn12
- Activity (HEK293T): Active
- Activity (C2C12 [10]): Active

Compound: Fc1cccc(-n2cnc3c(NCc4nc5c(F)c(F)ccc5[nH]4)nc(N4CCOCC4)nc32)c1
- Activity (C2C12 [17]): Dde
- Activity (C2C12 [18]): Dde
